Measurements: PubChem BioAssay AID1963977 (Molecular Pharmacology Branch, DTP, NCI, 2024)

Test system: 624824-186-R-J3-PDC multicell spheroids, viability
Assay: Anticancer human tumor 624824-186-R-J3-PDC patient-derived colon adenocarcinoma cell line growth inhibition [PI3K]
Settings: for IC50: curve of first compound; for viability, T/C: stronger effect = lower value
Summary of the method: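 Three cell types, namely tumor cells, endothelial cells and mesenchymal stem cells, formed each spheroid. Combinations with four PI3K inhibitors were screened at clinically achievable concentrations decreasing by half-log, and spheroid viability was recorded.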

[1] = second compound 0.0316 µM, first compound 0.00316 µM
[2] = second compound 0.0316 µM, first compound 0.01 µM
[3] = second compound 0.0316 µM, first compound 0.0316 µM
[4] = second compound 0.0316 µM, first compound 0.1 µM
[5] = second compound 0.1 µM, first compound 0.00316 µM
[6] = second compound 0.1 µM, first compound 0.01 µM
[7] = second compound 0.1 µM, first compound 0.0316 µM
[8] = second compound 0.1 µM, first compound 0.1 µM
[9] = second compound 0.316 µM, first compound 0.00316 µM
[10] = second compound 0.316 µM, first compound 0.01 µM
[11] = second compound 0.316 µM, first compound 0.0316 µM
[12] = second compound 0.316 µM, first compound 0.1 µM
[13] = second compound 1 µM, first compound 0.00316 µM
[14] = second compound 1 µM, first compound 0.01 µM
[15] = second compound 1 µM, first compound 0.0316 µM
[16] = second compound 1 µM, first compound 0.1 µM
[17] = second compound 3.16 µM, first compound 0.00316 µM
[18] = second compound 3.16 µM, first compound 0.01 µM
[19] = second compound 3.16 µM, first compound 0.0316 µM
[20] = second compound 3.16 µM, first compound 0.1 µM
[21] = second compound 10 µM, first compound 0.00316 µM
[22] = second compound 10 µM, first compound 0.01 µM
[23] = second compound 10 µM, first compound 0.0316 µM
[24] = second compound 10 µM, first compound 0.1 µM
[25] = second compound 0.0316 µM, first compound 0.000316 µM
[26] = second compound 0.0316 µM, first compound 0.001 µM
[27] = second compound 0.1 µM, first compound 0.000316 µM
[28] = second compound 0.1 µM, first compound 0.001 µM
[29] = second compound 0.316 µM, first compound 0.000316 µM
[30] = second compound 0.316 µM, first compound 0.001 µM
[31] = second compound 1 µM, first compound 0.000316 µM
[32] = second compound 1 µM, first compound 0.001 µM
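Further: spheroids exposed to agents for seven days before luminescence read.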
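Wherever viability, T/C is given: luminescent signal used as a stand-in for spheroid viability; percent viability relative to DMSO vehicle control wells taken as 100%.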

`CCN1CCN(Cc2ccc(Nc3ncc(F)c(-c4cc(F)c5nc(C)n(C(C)C)c5c4)n3)nc2)CC1` + Cc1nc(NC(=O)N2CCCC2C(N)=O)sc1-c1ccnc(C(C)(C)C(F)(F)F)c1 was tested, and the IC50 (second compound 0.0316 µM) was over 1000 nM, the IC50 (second compound 0.1 µM) was over 1000 nM and the IC50 (second compound 0.316 µM) was over 1000 nM. It also gave an IC50 (second compound 1 µM) of over 1000 nM, an IC50 (second compound 3.16 µM) of 753 nM and an IC50 (second compound 10 µM) of 29.6 nM. It also gave a viability, T/C [1] of 106%, a viability, T/C [2] of 99.3% and a viability, T/C [3] of 106%. The viability, T/C [4] was 108%, the viability, T/C (second compound 0.0316 µM, first compound 0.316 µM) was 100% and the viability, T/C (second compound 0.0316 µM, first compound 1 µM) was 94.2%. It also gave a viability, T/C [5] of 106%, a viability, T/C [6] of 109% and a viability, T/C [7] of 112%. It also gave a viability, T/C [8] of 107%, a viability, T/C (second compound 0.1 µM, first compound 0.316 µM) of 97.5% and a viability, T/C (second compound 0.1 µM, first compound 1 µM) of 89.6%. It also gave a viability, T/C [9] of 102%, a viability, T/C [10] of 116% and a viability, T/C [11] of 97.4%. It also gave a viability, T/C [12] of 94.6%, a viability, T/C (second compound 0.316 µM, first compound 0.316 µM) of 88.1% and a viability, T/C (second compound 0.316 µM, first compound 1 µM) of 73.1%. For the same molecule, the viability, T/C [13] was 101%, the viability, T/C [14] was 105% and the viability, T/C [15] was 98.1%. It also gave a viability, T/C [16] of 81.6%, a viability, T/C (second compound 1 µM, first compound 0.316 µM) of 62.9% and a viability, T/C (second compound 1 µM, first compound 1 µM) of 58.3%. For the same molecule, the viability, T/C [17] was 85.3%, the viability, T/C [18] was 92% and the viability, T/C [19] was 77.8%. The viability, T/C [20] was 57%, the viability, T/C (second compound 3.16 µM, first compound 0.316 µM) was 47.9% and the viability, T/C (second compound 3.16 µM, first compound 1 µM) was 51.6%. The viability, T/C [21] was 64.6%, the viability, T/C [22] was 59.6% and the viability, T/C [23] was 50.4%. For the same molecule, the viability, T/C [24] was 41.5%, the viability, T/C (second compound 10 µM, first compound 0.316 µM) was 36.6% and the viability, T/C (second compound 10 µM, first compound 1 µM) was 48.6%.

For `CC(=O)c1c(C)c2cnc(Nc3ccc(N4CCNCC4)cn3)nc2n(C2CCCC2)c1=O` + CC(Nc1ccc2c(c1)OCCn1cc(N3C(=O)OCC3C(F)F)nc1-2)C(N)=O, the IC50 (second compound 0.00316 µM) was over 100 nM, the IC50 (second compound 0.01 µM) was over 100 nM and the IC50 (second compound 0.0316 µM) was over 100 nM. For the same molecule, the IC50 (second compound 0.1 µM) was over 100 nM, the IC50 (second compound 0.316 µM) was over 100 nM and the IC50 (second compound 1 µM) was over 100 nM. It also gave a viability, T/C (second compound 0.00316 µM, first compound 0.000316 µM) of 100%, a viability, T/C (second compound 0.00316 µM, first compound 0.001 µM) of 101% and a viability, T/C (second compound 0.00316 µM, first compound 0.00316 µM) of 101%. The viability, T/C (second compound 0.00316 µM, first compound 0.01 µM) was 105%, the viability, T/C (second compound 0.00316 µM, first compound 0.0316 µM) was 99% and the viability, T/C (second compound 0.00316 µM, first compound 0.1 µM) was 110%. For the same molecule, the viability, T/C (second compound 0.01 µM, first compound 0.000316 µM) was 108%, the viability, T/C (second compound 0.01 µM, first compound 0.001 µM) was 94.6% and the viability, T/C (second compound 0.01 µM, first compound 0.00316 µM) was 106%. The viability, T/C (second compound 0.01 µM, first compound 0.01 µM) was 102%, the viability, T/C (second compound 0.01 µM, first compound 0.0316 µM) was 108% and the viability, T/C (second compound 0.01 µM, first compound 0.1 µM) was 106%. It also gave a viability, T/C [25] of 101%, a viability, T/C [26] of 105% and a viability, T/C [1] of 84.5%. For the same molecule, the viability, T/C [2] was 105%, the viability, T/C [3] was 104% and the viability, T/C [4] was 97.3%. It also gave a viability, T/C [27] of 101%, a viability, T/C [28] of 99% and a viability, T/C [5] of 95.7%. It also gave a viability, T/C [6] of 107%, a viability, T/C [7] of 107% and a viability, T/C [8] of 102%. For the same molecule, the viability, T/C [29] was 99.2%, the viability, T/C [30] was 95.5% and the viability, T/C [9] was 106%. The viability, T/C [10] was 99.8%, the viability, T/C [11] was 108% and the viability, T/C [12] was 104%. It also gave a viability, T/C [31] of 91.3%, a viability, T/C [32] of 96% and a viability, T/C [13] of 97.9%. It also gave a viability, T/C [14] of 94.8%, a viability, T/C [15] of 88.5% and a viability, T/C [16] of 81.3%.

`CC(C)n1nc(-c2ccc3oc(N)nc3c2)c2c(N)ncnc21` + CC(Nc1ncnc2nc[nH]c12)c1cc2cccc(Cl)c2c(=O)n1-c1ccccc1 was tested, and the IC50 (second compound 0.0316 µM) was over 100 nM, the IC50 (second compound 0.1 µM) was over 100 nM and the IC50 (second compound 0.316 µM) was over 100 nM. It also gave an IC50 (second compound 1 µM) of over 100 nM, an IC50 (second compound 3.16 µM) of 91.8 nM and an IC50 (second compound 10 µM) of 61.9 nM. It also gave a viability, T/C [25] of 97.5%, a viability, T/C [26] of 102% and a viability, T/C [1] of 103%. For the same molecule, the viability, T/C [2] was 101%, the viability, T/C [3] was 98.7% and the viability, T/C [4] was 62.4%. For the same molecule, the viability, T/C [27] was 95.5%, the viability, T/C [28] was 107% and the viability, T/C [5] was 116%. The viability, T/C [6] was 107%, the viability, T/C [7] was 91.5% and the viability, T/C [8] was 69%. For the same molecule, the viability, T/C [29] was 98.8%, the viability, T/C [30] was 101% and the viability, T/C [9] was 113%. The viability, T/C [10] was 109%, the viability, T/C [11] was 97.1% and the viability, T/C [12] was 58.7%. For the same molecule, the viability, T/C [31] was 102%, the viability, T/C [32] was 111% and the viability, T/C [13] was 100%. It also gave a viability, T/C [14] of 103%, a viability, T/C [15] of 98.1% and a viability, T/C [16] of 62.2%. For the same molecule, the viability, T/C (second compound 3.16 µM, first compound 0.000316 µM) was 105%, the viability, T/C (second compound 3.16 µM, first compound 0.001 µM) was 111% and the viability, T/C [17] was 96.3%. The viability, T/C [18] was 97.1%, the viability, T/C [19] was 85.3% and the viability, T/C [20] was 46.6%. The viability, T/C (second compound 10 µM, first compound 0.000316 µM) was 93.2%, the viability, T/C (second compound 10 µM, first compound 0.001 µM) was 91.3% and the viability, T/C [21] was 95.1%. The viability, T/C [22] was 79.9%, the viability, T/C [23] was 68.1% and the viability, T/C [24] was 37.6%.
